This note sets out measurements from patent US20180235949A1 (priority 2015, published 2018).

One assay has as its target δ2 (DOP) (h) (Homo sapiens, UniProt P41143). It is filed as binding.
Assay [1] addresses T1, α2B (h) (Homo sapiens, UniProt P18089).
T1 sequence (P18089 1-450): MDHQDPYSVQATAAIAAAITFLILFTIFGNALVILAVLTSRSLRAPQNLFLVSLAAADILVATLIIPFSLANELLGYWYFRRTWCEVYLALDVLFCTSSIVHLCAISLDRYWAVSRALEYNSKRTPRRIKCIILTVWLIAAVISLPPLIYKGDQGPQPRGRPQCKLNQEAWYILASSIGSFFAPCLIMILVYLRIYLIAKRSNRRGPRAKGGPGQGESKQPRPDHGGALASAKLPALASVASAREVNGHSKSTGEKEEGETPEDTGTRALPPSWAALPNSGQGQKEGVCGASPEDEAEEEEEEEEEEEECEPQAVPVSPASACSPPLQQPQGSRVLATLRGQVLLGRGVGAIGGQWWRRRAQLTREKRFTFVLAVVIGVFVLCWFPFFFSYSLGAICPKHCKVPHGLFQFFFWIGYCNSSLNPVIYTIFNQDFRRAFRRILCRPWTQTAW
Briefly: α2B (h) (antagonist radioligand) binding. The following applies: for nH: α2B (h) (antagonist radioligand). How it is done:
(§1) Representative compounds were tested to determine IC50 or EC50 in receptor functional assays. One or more of the procedures disclosed in the following references were used: Devedjian, J. C. et al., Eur. J. Pharmacol., 1994, 252, 43-49; Wang, J. B. et al., FEBS Lett., 1994, 338, 217-222; Simonin, F. et al., Mol. Pharmacol., 1994, 46, 1015-1021; Meng, F. et al., Proc. Natl. Acad. Sci. U.S.A., 1993, 90, 9954-9958; Avidor-Reiss, T. et al., FEBS Lett., 1995, 361, 70-74; Eason, M. G. et al., J. Biol. Chem., 1992, 267, 15795-15801; Law, P. Y. et al., Mol. Pharmacol., 1993, 43, 684-693. In each experiment and if applicable, the respective reference compound was tested concurrently with the test compounds. Compound binding was calculated as a % inhibition of the binding of a radioactively labeled ligand specific for each target. Cellular agonist effect was calculated as a % of control response to a known reference agonist for each target and cellular antagonist effect was calculated as a % inhibition of control reference agonist response for each target. Only the calculable IC50 and EC50 are reported below.

The target of assay [2] is T1, α2B (h). Kind of assay: α2B (h) (antagonist effect) cellular functional assay. The format is cell-based. How it is done: as §1
For assay [3], the target named is T2, μ (MOP) (h) (Homo sapiens, UniProt P35372). It is filed as binding.
T2 sequence (P35372 whole entry): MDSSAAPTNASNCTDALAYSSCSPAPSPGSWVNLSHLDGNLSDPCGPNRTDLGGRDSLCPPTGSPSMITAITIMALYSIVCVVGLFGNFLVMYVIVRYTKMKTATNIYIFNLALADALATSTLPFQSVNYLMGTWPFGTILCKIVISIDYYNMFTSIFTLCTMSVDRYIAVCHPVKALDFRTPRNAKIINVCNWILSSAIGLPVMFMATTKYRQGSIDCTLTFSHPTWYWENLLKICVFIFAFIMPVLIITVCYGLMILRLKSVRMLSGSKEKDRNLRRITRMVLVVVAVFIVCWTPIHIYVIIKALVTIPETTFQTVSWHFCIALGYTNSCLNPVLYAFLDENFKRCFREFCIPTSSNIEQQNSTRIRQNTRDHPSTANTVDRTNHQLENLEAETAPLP
The next assay concerns the target κ (KOP) (Rattus norvegicus, UniProt P34975). It is filed as binding.
Assay [4] concerns the target T2, μ (MOP) (h). The format is cell-based.

SMILES strings stand for the structures. Read-outs that look alike come from different tables or passages of the source.

Chain of δ2 (DOP) (h) (P41143 whole entry): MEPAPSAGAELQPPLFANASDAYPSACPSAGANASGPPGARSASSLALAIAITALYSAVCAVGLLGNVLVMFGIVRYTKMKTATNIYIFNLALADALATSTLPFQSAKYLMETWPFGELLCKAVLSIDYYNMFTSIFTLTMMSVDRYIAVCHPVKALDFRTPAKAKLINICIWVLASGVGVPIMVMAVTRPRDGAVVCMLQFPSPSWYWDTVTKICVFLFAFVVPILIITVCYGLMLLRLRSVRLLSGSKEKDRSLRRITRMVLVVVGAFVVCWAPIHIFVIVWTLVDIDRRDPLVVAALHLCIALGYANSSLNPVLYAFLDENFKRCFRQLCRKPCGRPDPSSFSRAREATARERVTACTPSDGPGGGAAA
Chain of κ (KOP) (P34975 whole entry): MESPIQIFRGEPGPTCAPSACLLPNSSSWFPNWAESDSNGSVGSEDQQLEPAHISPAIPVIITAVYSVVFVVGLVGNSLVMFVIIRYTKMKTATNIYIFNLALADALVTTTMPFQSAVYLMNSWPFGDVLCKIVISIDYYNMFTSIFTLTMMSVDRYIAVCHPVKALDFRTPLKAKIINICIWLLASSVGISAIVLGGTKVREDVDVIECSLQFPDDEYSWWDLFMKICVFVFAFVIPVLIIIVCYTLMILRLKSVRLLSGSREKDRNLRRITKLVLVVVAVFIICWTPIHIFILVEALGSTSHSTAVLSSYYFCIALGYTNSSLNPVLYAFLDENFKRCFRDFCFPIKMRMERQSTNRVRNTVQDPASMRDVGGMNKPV

As a reminder, the IC50 is the concentration needed to halve the response being measured. Higher therefore signals lower potency. The term Ki denotes the equilibrium dissociation constant of an inhibitor or competing ligand from its target. Low values mean tighter binding, high ones weaker binding. As usually defined, the Kb is the equilibrium dissociation constant of an antagonist, usually derived from a functional assay. As to `O=C(NC1CCN(CCc2ccccc2)CC1)c1ccco1` [N-(1-phenethylpiperidin-4-yl)furan-2-carboxamide], the nH at δ2 (DOP) (h) was determined as 1; on α2B (h) [1], 0.7; on μ (MOP) (h) [3] it was 0.8; on κ (KOP), 1.1. Also, the results for the 50% inhibitory concentration (IC50) on α2B (h) [1] and at α2B (h) [2] were 4.6 µM and 380 µM, respectively. The compound further came in with a Ki at α2B (h) [1] of 3 µM. In addition, on α2B (h) [2], the Kb is 50 µM.

For `CCC(=O)NC1CCN(CCc2cccs2)CC1` [N-(1-(2-(thiophen-2-yl)ethyl)piperidin-4-yl)propionamide], the nH amounted to 0.9 at δ2 (DOP) (h), 1.2 on α2B (h) [1], 0.6 on μ (MOP) (h) [4] and 0.6 on κ (KOP). Moreover, the IC50 at α2B (h) [1] is 11 µM; on α2B (h) [2] it was 440 µM. Besides, the affinity at α2B (h) [1], expressed as Ki, was 7.6 µM. On α2B (h) [2], the Kb was determined as 57 µM.

Turning to `O=C(NC1CCN(CCc2ccccc2)CC1)c1ccoc1` [N-(1-phenethylpiperidin-4-yl)furan-3-carboxamide], the nH came out at 1 at δ2 (DOP) (h), 0.7 at α2B (h) [1], 0.8 at μ (MOP) (h) [3] and 1.1 on κ (KOP). In addition, the results for the IC50 at α2B (h) [1] and at α2B (h) [2] were 3 µM and 230 µM, respectively. At α2B (h) [1], this compound gave a Ki of 3 µM. The compound also returned an antagonist equilibrium constant (Kb) at α2B (h) [2] of 50 µM.

In the case of `O=C(CCCCCCCBr)NC1CCN(CCc2ccccc2)CC1` [8-bromo-N-(1-phenethylpiperidin-4-yl)octanamide], on α2B (h) [1], the IC50 turned out to be 5.7 µM; the affinity, expressed as Ki, was 3.8 µM; the nH was found to be 0.8. On α2B (h) [2], this compound showed a half-inhibitory concentration (IC50) of 360 µM and an antagonist equilibrium constant (Kb) of 46 µM. On μ (MOP) (h) [4], this compound showed a nH of 0.4. On κ (KOP), this compound gave a nH of 0.5.

With `O=C(NC1CCN(CCc2ccccc2)CC1)c1ccccc1` [N-(1-phenethylpiperidin-4-yl)benzamide], the nH at δ2 (DOP) (h) is listed as 0.7; at α2B (h) [1], 1.3; at μ (MOP) (h) [3], 0.9; on κ (KOP), 0.6. For the same compound, the values for the IC50 on α2B (h) [1] and against α2B (h) [2] were 4 µM and 350 µM, respectively. Moreover, the Ki at α2B (h) [1] came to 0.27 µM. On α2B (h) [2], this compound gave a Kb of 46 µM.
